Experiments:
serum cholesterol = assay: cholesterol-fed rabbit test; format: in vivo, male, New Zealand white rabbits; settings: oral 50 mg/kg thirty minutes prior to each meal for seven days, serum cholesterol three hours after last meal
From the text: In the cholestrol-fed rabbit test, male, New Zealand white rabbits weighing approximately 1 kg were fed a normal diet 40 g per day of rabbit chow (Purina NO. 5321, Ralston Purina Co., 711 West Fuesser Road, Mascoutah, Ill., 62224, USA). After six days on this diet, the rabbits were fed 50 g per day for three days of a cholsterol-enriched diet consisting of one part of a cholesterol-containing chow (Purina Catalog No. 841206WLI, 0.25% cholesterol) and two parts of normal chow. Next, the rabbits were fed 60 g per day for four days of a cholsterol-enriched diet consisting of two parts of a cholesterol-containing chow (Purina Catalog No. 841206WLI, 0.25% cholesterol) and one part of normal chow.
After this meal adaptation and cholesterol loading period, the test compounds of this invention were administered to the test animals in oral doses of 50 mg/kg of body weight thirty minutes prior to each meal for seven days. Control animals were administered vehicle only.
The animals were sacrificed three hours after their last meal in the postabsorptive state. Serum cholesterol levels were determined for each animal, and the data appear in Table 2 expressed as percent change in serum cholesterol level compared to control.

total cholesterol = assay: cholesterol-fed rat test; format: in vivo, male, Sprague-Dawley rats; settings: drug admixed in diet with 5.5% peanut oil, 1.5% cholesterol and 0.3% cholic acid, one week, nonfasted
From the text: In the cholesterol-fed rat test, male, Sprague-Dawley rats (approximately 200 g body weight) were randomly divided into groups and provided ad libitum a regular rat chow diet (Purina No. 5002) supplemented with 5.5% peanut oil, 1.5% cholesterol and 0.3% cholic acid, with or without drug admixed at the indicated levels (w/w). After one week, the animals (nonfasted) were etherized and blood was taken from the heart into EDTA (0.14% final concentration) to measure total cholesterol using the Abbott VP Analyzer.

[1] = target: T1, acyl-CoA:cholesterol acyltransferase (ACAT) (Oryctolagus cuniculus, UniProt G1SFD9); assay: in vitro inhibition of ACAT (cholesterol esterification by radio-labeled oleic acid, rabbit intestinal microsomes); format: biochemical
T1 construct: tissue preparation containing rabbit intestinal microsomes; from tissue; host or cells: rabbit intestinal microsomes
T1 sequence (G1SFD9 1-524): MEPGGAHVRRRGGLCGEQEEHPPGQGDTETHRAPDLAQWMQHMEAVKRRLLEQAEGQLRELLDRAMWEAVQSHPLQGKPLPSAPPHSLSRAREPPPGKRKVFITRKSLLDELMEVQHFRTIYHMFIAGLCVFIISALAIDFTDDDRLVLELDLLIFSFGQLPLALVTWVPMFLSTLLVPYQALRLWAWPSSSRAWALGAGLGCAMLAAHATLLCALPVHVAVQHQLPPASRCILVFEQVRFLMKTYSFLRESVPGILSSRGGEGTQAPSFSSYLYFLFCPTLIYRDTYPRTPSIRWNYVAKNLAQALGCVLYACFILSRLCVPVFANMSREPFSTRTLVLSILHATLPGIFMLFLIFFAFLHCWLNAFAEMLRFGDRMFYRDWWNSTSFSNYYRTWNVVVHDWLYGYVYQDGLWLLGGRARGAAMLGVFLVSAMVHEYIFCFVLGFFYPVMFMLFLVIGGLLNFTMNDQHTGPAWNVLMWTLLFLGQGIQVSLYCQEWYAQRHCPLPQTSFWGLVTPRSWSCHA
From the text: The test assesses the ability of a compound to inhibit the acylation of cholesterol by oleic acid by measuring the amount of radio-labeled cholesterol oleate formed from radio-labeled oleic acid in a tissue preparation containing rabbit intestinal microsomes.

| Structure (SMILES) | IC50 [1] | Percent Reduction in Cholesterol, Rabbit (percent change in serum cholesterol level compared to control) (serum cholesterol) | Percent Reduction in Cholesterol, Rat (total cholesterol) |
| --- | --- | --- | --- |
| CCCCCCCCCCC(C)(C)C(=O)Nc1c(OC)cc(OC)cc1OC [2,2-Dimethyl-N-(2,4,6-trimethoxyphenyl)dodecanamide] | – | -67% | -54% |
| CCCCCCCCCCCCC(C)C(=O)Nc1c(OCC)ncnc1OCC (centres unmarked) [N-(4,6-Diethoxy-5-pyrimidinyl)-2-methyltetradecanamide] | 0.5 µM | – | – |
| CCCCCCCC/C=C\CCCCCCC(C)C(=O)Nc1c(OC)cc(OC)cc1OC (centres unmarked) [(Z)-2-methyl-N-(2,4,6-trimethoxyphenyl)-9-octadecenamide] | 0.034 µM | – | – |
| CCCCCCCC/C=C\CCCCCCCCC(C)(C)C(=O)Nc1c(C)cccc1OC [(Z)-N-(2-Methoxy-6-methylphenyl)-2,2-dimethyl-11-eicosenamide] | 0.68 µM | – | – |
| CCCCCCCCCCCCC(C)C(=O)Nc1c(OC)cc(OC)cc1OC (centres unmarked) [2-Methyl-N-(2,4,6-trimethoxyphenyl)tetradecanamide] | – | -45% | -52% |
| CCCCCCCCCCC1(C(=O)Nc2c(OC)cc(OC)cc2OC)CCCC1 [1-Decyl-N-(2,4,6-trimethoxyphenyl)cyclopentanecarboxamide] | 0.007 µM | – | -52% |
| CCCCCCCCCCCCC(CC)C(=O)Nc1c(OC)cc(OC)cc1OC (centres unmarked) [2-Ethyl-N-(2,4,6-trimethoxyphenyl)tetradecanamide] | 0.05 µM | – | – |
| CCCCCCCC/C=C\CCCCCCCCC(C)(C)C(=O)Nc1c(OC)ncnc1OC [(Z)-N-(4,6-dimethoxy-5-pyrimidinyl)-2,2-dimethyl-11-eicosenamide] | 0.78 µM | – | – |
| CCCCCCCCCCC(C)(C)C(=O)Nc1c(OC)ncnc1OC [N-(4,6-Dimethoxy-5-pyrimidinyl)-2,2-dimethyldodecanamide] | 0.23 µM | – | – |
| CCCCCCCCCCCCC(C)(C)C(=O)Nc1c(OC)ncnc1OC [N-(4,6-dimethoxy-5-pyrimidinyl)-2,2-dimethyltetradecanamide] | 1.3 µM | – | – |
| CCCCCCCC/C=C\CCCCCCCCC(C)(C)C(=O)Nc1c(OC)cc(OC)cc1OC [(Z)-2,2-Dimethyl-N-(2,4,6-trimethoxyphenyl)-11-eicosenamide] | 0.11 µM | – | – |

Continued, in another order:

| IC50 [1] | Structure (SMILES) | Percent Reduction in Cholesterol, Rabbit (percent change in serum cholesterol level compared to control) (serum cholesterol) | Percent Reduction in Cholesterol, Rat (total cholesterol) |
| --- | --- | --- | --- |
| 0.4 µM | CCCCCCCCCCCCC(C)C(=O)Nc1c(OC)ncnc1OC (centres unmarked) [N-(4,6-dimethoxy-5-pyrimidinyl)-2-methyltetradecanamide] | -29% | – |
| 0.23 µM | CCCCCCCCCCC(C)(C)C(=O)Nc1c(C)cccc1OCC [N-(2-Ethoxy-6-methylphenyl)-2,2-dimethyl-dodecanamide] | – | – |
| 7 µM | CCCCCCCCCCC(Cc1ccccc1)C(=O)NC(C)c1ccccn1 (stereo not drawn) [α-Decyl-N-[1-(2-pyridinyl)ethyl]benzenepropanamide] | – | – |
| 0.7 µM | CCCCCCCCCCCCC(CC)C(=O)NC(C)c1ccccn1 (centres unmarked) [2-ethyl-N-[1-(2-pyridinyl)ethyl]tetradecanamide] | – | – |
| 1.6 µM | CCCCCCCCCCC(CC)C(=O)NC(C)c1ccccn1 (centres unmarked) [2-Ethyl-N-[1-(2-pyridinyl)ethyl]dodecanamide] | – | – |
| 0.26 µM | CCCCCCCCCCCCC(CC)C(=O)Nc1c(OC)ncnc1OC (centres unmarked) [N-(4,6-Dimethoxy-5-pyrimidinyl)-2-ethyltetradecanamide] | – | – |
| 0.8 µM | CCCCCCCCCCCCC(C)C(=O)NC(C)c1ccccn1 (centres unmarked) [2-Methyl-N-[1-(2-pyridinyl)ethyl]tetradecanamide] | – | – |
| 3.3 µM | CCCCCCCCCCC(C)C(=O)NC(C)c1ccccn1 (centres unmarked) [2-Methyl-N-[1-(2-pyridinyl)ethyl]dodecanamide] | – | – |
| 3.7 µM | CCCCCCCCCCC(CCC)C(=O)NC(C)c1ccccn1 (centres unmarked) [2-Propyl-N-[1-(2-pyridinyl)ethyl]dodecanamide] | – | – |
| 0.7 µM | CCCCCCCCCCCCCCC(C)(C)C(=O)NC(C)c1ccccn1 (centres unmarked) [2,2-Dimethyl-N-[1-(2-pyridinyl)ethyl]hexadecanamide] | – | – |
| 1.4 µM | CCCCCCCCCCCCCCC(C)C(=O)NC(C)c1ccccn1 (centres unmarked) [2-methyl-N-[1-(2-pyridinyl)ethyl]hexadecanamide] | – | – |

Source: US4716175A, “Saturated fatty acid amides as inhibitors of acyl-CoA:cholesterol acyltransferase” (Warner-Lambert Company, priority 1987, dated 1987)
